# Data taken from patent US20070270484A1, “3'-N-Substituted-3-O-Substituted Erythronolide a Derivatives” (priority 2003, published 2007).
# Legend:
# S. pneum AB 14 (erm) = test: microbe, parasite or virus in culture; format: cell-based, streptococcus pneumoniae; settings: agar dilution, 18-24 hours, 35±2° C., 5% CO2; erm: ribosomal modification (mutation) erm genes
# Protocol: (§1) Drug dilutions and the agar plates are prepared by NCCLS method. Inoculum is prepared by direct colony suspensions in normal saline and adjusted to 0.5 McFarland turbidity and subsequently diluted as per NCCLS guidelines in order to obtain 10^4 CFU/spot. CFU/ml of a few randomly selected cultures is performed. The cultures are replicated on the agar plates using replicator (Denley's multipoint). The plates are incubated at 35±2° C. and in 5% CO2 atmosphere (for respiratory and Haemophilus strains) for 18-24 hours at 35±2° C. Minimum inhibitory concentrations (MIC) are determined after 18-24 hours. Q. C. strains are also included in each run of the study. The cation content of Mueller Hinton agar is checked by performing disk […] of 10 μg gentamicin disk against Pseudomonas aeroginosa ATCC 27853. The zone of inhibition should fall between 16-21 mm. The concentration of drug at which there is complete disappearance of growth spot or formation of less than 10 colonies per spot is considered as MIC.
# S. pneum 1256 (erm) = test: microbe, parasite or virus in culture; format: cell-based, streptococcus pneumoniae; settings: agar dilution, 18-24 hours, 35±2° C., 5% CO2; erm: ribosomal modification (mutation) erm genes
# Protocol: as §1
# S. pneum 1294 (mef) = test: microbe, parasite or virus in culture; format: cell-based, streptococcus pneumoniae; settings: agar dilution, 18-24 hours, 35±2° C., 5% CO2; mef: efflux pump mef genes
# Protocol: as §1
# S. pneum AB 30 (erm) = test: microbe, parasite or virus in culture; format: cell-based, streptococcus pneumoniae; settings: agar dilution, 18-24 hours, 35±2° C., 5% CO2; erm: ribosomal modification (mutation) erm genes
# Protocol: as §1
# S. pneum 1275 (erm) = test: microbe, parasite or virus in culture; format: cell-based, streptococcus pneumoniae; settings: agar dilution, 18-24 hours, 35±2° C., 5% CO2; erm: ribosomal modification (mutation) erm genes
# Protocol: as §1
# S. pneum AB 29 (erm) = test: microbe, parasite or virus in culture; format: cell-based, streptococcus pneumoniae; settings: agar dilution, 18-24 hours, 35±2° C., 5% CO2; erm: ribosomal modification (mutation) erm genes
# Protocol: as §1
# H. inflenza ATCC 49247 = test: MIC, agar incorporation method (NCCLS agar dilution method); format: cell-based, Haemophilus influenzae; settings: agar dilution, 18-24 hours, 35±2° C., 5% CO2
# Protocol: Minimum inhibitory concentrations (μg/ml) were obtained for representative compounds of the invention, which are given in Table 2.
# as §1
# S. pneum CS 1687 (mef) = test: as above; format: cell-based, streptococcus pneumoniae; settings: 18-24 hours, 35±2° C., 5% CO2, mef: efflux pump mef genes
# Protocol: as §1
# S. pneum 1251 (mef) = test: as above; format: cell-based, streptococcus pneumoniae; settings: 18-24 hours, 35±2° C., 5% CO2, mef: efflux pump mef genes
# Protocol: as §1
# S. pneum AB 34 (mef) = test: as above; format: cell-based, streptococcus pneumoniae; settings: 18-24 hours, 35±2° C., 5% CO2, mef: efflux pump mef genes
# Protocol: as §1
# S. pneum ATCC 49619 = test: as above; format: cell-based, streptococcus pneumoniae; settings: 18-24 hours, 35±2° C., 5% CO2
# Protocol: as §1
# S. pneum ATCC 6303 = test: as above; format: cell-based, streptococcus pneumoniae; settings: 18-24 hours, 35±2° C., 5% CO2
# Protocol: as §1
# MoraXella MI = test: as above; format: cell-based; settings: 18-24 hours, 35±2° C.
# Protocol: as §1
smiles,measurement,setting,value
"CC[C@H]1OC(=O)[C@H](C)[C@@H](O[C@H]2C[C@@](C)(OC)[C@@H](O)[C@H](C)O2)[C@H](C)[C@@H](O[C@@H]2O[C@H](C)C[C@H](N(C)C)[C@H]2O)[C@](C)(O)C[C@@H](C)C(=O)[C@H](C)[C@@H](O)[C@]1(C)O [E, erythromycin A, reference compound]","Minimum Inhibitory Concentrations, S. pneum AB 14 (erm)",S. pneum AB 14 (erm),>16 µg/mL
same,"Minimum Inhibitory Concentrations, S. pneum 1256 (erm)",S. pneum 1256 (erm),>16 µg/mL
same,"Minimum Inhibitory Concentrations, S. pneum 1294 (mef)",S. pneum 1294 (mef),>16 µg/mL
same,"Minimum Inhibitory Concentrations, S. pneum AB 30 (erm)",S. pneum AB 30 (erm),>16 µg/mL
same,"Minimum Inhibitory Concentrations, S. pneum 1275 (erm)",S. pneum 1275 (erm),>16 µg/mL
same,"Minimum Inhibitory Concentrations, S. pneum AB 29 (erm)",S. pneum AB 29 (erm),>16 µg/mL
same,"Minimum Inhibitory Concentrations, H. inflenza ATCC 49247",H. inflenza ATCC 49247,>16 µg/mL
same,"Minimum Inhibitory Concentrations, S. pneum CS 1687 (mef)",S. pneum CS 1687 (mef),>16 µg/mL
same,"Minimum Inhibitory Concentrations, S. pneum 1251 (mef)",S. pneum 1251 (mef),8 µg/mL
same,"Minimum Inhibitory Concentrations, S. pneum AB 34 (mef)",S. pneum AB 34 (mef),>16 µg/mL
same,"Minimum Inhibitory Concentrations, S. pneum ATCC 49619",S. pneum ATCC 49619,0.008 µg/mL
same,"Minimum Inhibitory Concentrations, S. pneum ATCC 6303",S. pneum ATCC 6303,0.03 µg/mL
same,"Minimum Inhibitory Concentrations, MoraXella MI",MoraXella MI,0.06 µg/mL
